Assay results from publication PMC9853512 (RSC Advances, 2023).
≈ marks a conversion by molar mass, not a printed value.

Key:
Assay type in all cases: cell-based
H. pylori strain SS1 = assay: MIC, two-fold microdilution assay, H. pylori; conditions: Helicobacter pylori, SS1, 48 h, read-out: MIC H. pylori SS1
[1] = test system: C. albicans strain ATCC14053; assay: MIC, two-fold microdilution assay, C. albicans; conditions: Candida albicans, ATCC14053, 18 h, read-out: MIC C. Albicans ATCC14053
[2] = test system: S. aureus strain ATCC 29213; assay: MIC, two-fold microdilution assay, S. aureus; conditions: Staphylococcus aureus, ATCC29213, 18 h, read-out: MIC S. Aureus ATCC 29213
[3] = test system: E. coli strain ATCC 25922; assay: MIC, two-fold microdilution assay, E. coli; conditions: Escherichia coli, ATCC25922, 18 h, read-out: MIC E. coli ATCC 25922

SMILES | MIC (H. pylori strain SS1) | MIC [1] | MIC [2] | MIC [3]
O=C1OCCN1N=Cc1ccc([N+](=O)[O-])o1 [FZD, 3-(5-nitrofurfurylideneamino)-2-oxazolidinone] | < 0.0976 µg/mL | > 50 µg/mL | 3.12 µg/mL (≈ 13.9 µM) | 0.391 µg/mL (≈ 1.73 µM)
O=C1CN(N=Cc2ccc([N+](=O)[O-])o2)C(=O)N1 [NFT, 1-(((5-nitro-2-furanyl)methylene)amino)-2,4-imidazolidinedione] | – | > 50 µg/mL | 25 µg/mL (≈ 105 µM) | 12.5 µg/mL (≈ 52.5 µM)
